Measurements taken from patent EP2450046B1, “A MEDICINAL COMPOSITION FOR THE TREATMENT OF BRONCHITIS AND PREPARATION THEREOF” (Hebei Yiling Medicine Research Institute Co., Ltd., priority 2009, dated 2011).
Where two headings read alike, the source gives them in different places.

Key:
[1] = tested on: xylene-induced ear swelling in mice; experiment: Effect on xylene-induced ear swelling in mice; type: in vivo, Kunming male mice; conditions: Aspirin 0.2 g/kg i.g. q.d. 3 days; weight of right minus left ear piece; n=10
Description: Sixty Kunming male mice of Grade II with the mean body weight of 19.77 ± 0.91 g, provided by the breeding farm of the Institute of Laboratory Animal Science, Chinese Academy of Medical Sciences, License number: SCXK (Jing) 2000-0006. • (1) The present medication to be tested, 6.25 g crude drugs/g, provided by […] Pharmaceutical Co. […] SFDA Approval No. Z-11; Lot number of the product: 060112; valid until December 2007. • (3) Aspirin enteric-coated tablet as a western medicine control, 0.3 g/tablet, produced by Yantai the Second Pharmaceutical Factory), lot number: 011102. The above-described medications were formulated with distilled water into the required concentrations in the experiment. Sixty healthy mice were randomly assigned into the following six groups with 10 animals per group: […] (2) the Aspirin group (0.2 g/kg); (3) the […] group (2 g crude drugs/kg); (4) the low dosage group of the present medication (L-dosage group, 3g crude drugs/kg); (5) the medium dosage group of the present medication (M-dosage group, 6g crude drugs/kg); (6)the high dosage group of the present medication (H-dosage group, 12g crude drugs/kg). […] Fifteen minutes later, the animal was sacrificed by dislocation. […] The degree of ear swelling for each mouse was calculated by subtraction of the weight of the left piece from that of the right piece. […]

[2] = tested on: carrageenan-induced swelling of rat's footpad; experiment: Effect on carrageenan-induced swelling of rat's footpad; type: in vivo, Wistar male rats; conditions: for Foot volume after inflammation / Foot volume, Difference / Swelling rate / inhibition at 150 mg/kg: Aspirin 0.15 g/kg i.g. q.d. 3 days; for inhibition at 150 mg/kg: Rattus norvegicus, po, read-out: Inhibition rate
Description: • (1) The present medication to be tested, 6.25g crude drugs/g, provided by […] Pharmaceutical Co. […] SFDA Approval No. Z-11; […] The above-described medications were prepared into the required concentrations with distilled water in the experiment. • (4) Carrageenan, from SIGMA, lot number: 117H0151, prepared into required concentrations for the experiment. Sixty while Wistar male rats of Grade I with the mean body weight of 157.05 ± 8.49 g, provided by Institute of Laboratory Animal Science, Chinese Academy of Medical Sciences, License number: […] The sixty healthy rats were randomly assigned into the following six groups: (1) the blank control group administered with distilled water (10 ml/kg); […] (3) the […] group (1.5 g crude drugs/kg); (4) the low dosage group of the present medication (L-dosage group, 2 g crude drugs/kg); (5) the medium dosage group of the present medication (M-dosage group, 4 g crude drugs/kg); (6)the high dosage group of the present medication (H-dosage group, 8 g crude drugs/kg). The volume of the left hind foot of each animal determined by capillary amplification method was used as the value prior to administration. […] Comparisons among the groups were performed on the difference between the left foot volumes before and after inflammation by t-test.

[3] = tested on: tampon-induced granuloma in rats; experiment: Effect on small tampon-induced granuloma in rats; type: in vivo; conditions: Aspirin 0.15 g/kg i.g. q.d. 7 days; n=10
Description: Sixty Wistar […] of Grade II evenly composed of males and females with the mean body weight of 132.37 ± 6.31 g, provided by the breeding farm of the Institute of Laboratory Animal Science, Chinese […] of Medical Sciences, and License number: SCXK (Jing) 2000-0006. • (1) The present medication to be tested, 6.25 g crude drugs/g, provided by […] Pharmaceutical Co. […] No. Z-11; Lot number: 060112. • (3) Aspirin Enteric-coated Tablet as a western medicine control, 0.3 g/tablet, produced by Yantai the Second Pharmaceutical Factory), lot number: 051102. The medication was prepared to required concentrations with distilled water in the experiment. • (4) Ampicillin Sodium Injection (ASI), 0.5 g/bottle, Produced by North China Pharmaceutical Co., Ltd. lot number: F0111207. […] The average wet and dry weights of the post-inflammation granuloma for each of the groups were calculated, from which the original weight of the cotton ball had been subtracted, and were compared among the groups by t-test.

CC(=O)Oc1ccccc1C(=O)O [Aspirin]
Swelling rate [1]: 3.50 ± 0.71 mg
Foot volume after inflammation ([2]; 0.5h): 1.19 ± 0.04 mL
Foot volume, Difference ([2]; 0.5h): 0.21 ± 0.05 mL
Swelling rate ([2]; 0.5h): 21.4±5.49 %
Foot volume after inflammation ([2]; 1h): 1.23 ± 0.04 mL
Foot volume, Difference ([2]; 1h): 0.25 ± 0.03 mL
Swelling rate ([2]; 1h): 25.4±3.87 %
Foot volume after inflammation ([2]; 2h): 1.27 ± 0.02 mL
Foot volume, Difference ([2]; 2h): 0.29 ± 0.03 mL
Swelling rate ([2]; 2h): 29.7±4.00 %
Foot volume after inflammation ([2]; 4h): 1.30 ± 0.04 mL
Foot volume, Difference ([2]; 4h): 0.32 ± 0.04 mL
Swelling rate ([2]; 4h): 32.80±4.78 %
Foot volume after inflammation ([2]; 6h): 1.24 ± 0.03 mL
Foot volume, Difference ([2]; 6h): 0.26 ± 0.04 mL
Swelling rate ([2]; 6h): 26.26±3.95 %
Foot volume before inflammation ([2]; Aspirin group 0.15 g/kg, baseline, n=10): 0.98 ± 0.03 mL
inhibition at 150 mg/kg ([2]; 0.5h): 41.5%
inhibition at 150 mg/kg ([2]; 1h): 41.2%
inhibition at 150 mg/kg ([2]; 2h): 38.6%
inhibition at 150 mg/kg ([2]; 4h): 32.1%
inhibition at 150 mg/kg ([2]; 6h): 45.6%
Dry weight of granuloma [3]: 99.20 ± 10.16 mg
Wet weight of granuloma [3]: 457.85 ± 50.01 mg
